{"source": "patent US20230143612A1", "about": "(Arbutus Biopharma Corporation, priority 2020, published 2023)", "data": [{"molecular_target": "PD-L1 His protein / PD-1 Fc protein (Homo sapiens, UniProt Q9NZQ7)", "sequence (Q9NZQ7 19-238 limits assumed)": "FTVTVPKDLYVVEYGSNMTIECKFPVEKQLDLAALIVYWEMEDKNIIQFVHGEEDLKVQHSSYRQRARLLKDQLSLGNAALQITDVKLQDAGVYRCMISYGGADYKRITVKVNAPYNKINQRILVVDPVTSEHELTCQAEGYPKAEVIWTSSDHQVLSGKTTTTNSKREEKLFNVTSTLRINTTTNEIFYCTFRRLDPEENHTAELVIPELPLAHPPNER", "assay": "HTRF Assay (PD-1/PD-L1 interaction)", "type": "binding", "conditions": "PD-L1 His 6 nM, PD-1 Fc 6 nM", "summary_of_the_method": "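HTRF: PD-L1 His (6 nM final), compound (3-fold dilutions, 20 μM to 0.001 μM final) and PD-1 Fc (6 nM final) preincubated 15 min at room temperature. Anti-human IgG-XL665 and anti-6HIS Tb cryptate (mixed at 6.7 nM and 0.35 nM) then added for 1 h at room temperature before reading.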", "units": {"IC50": "nM"}, "values": [{"smiles": "COc1nc(-c2cccc(-c3cccc(-c4ccn5c(=O)c(CNCC(=O)O)cnc5c4)c3Cl)c2Cl)ccc1CNC[C@@H]1CCC(=O)N1", "note": "[Example 189, (S)-((8-(2,2′-Dichloro-3′-(6-methoxy-5-((((5-oxopyrrolidin-2-yl)methyl)amino)methyl)pyridin-2-yl)-[1,1′-biphenyl]-3-yl)-4-oxo-4H-pyrido[1,2-a]pyrimidin-3-yl)methyl)glycine]", "IC50": 0.1}, {"smiles": "COc1nc(-c2cccc(-c3cccc(-c4ccn5c(=O)c(CN6CCN7C(=O)CCC7C6)cnc5c4)c3Cl)c2Cl)ccc1CNC[C@@H]1CCC(=O)N1", "note": "(stereo partly drawn) [Example 152, 8-(2,2′-Dichloro-3′-(6-methoxy-5-(((((S)-5-oxopyrrolidin-2-yl)methyl)amino)methyl)pyridin-2-yl)-[1,1′-biphenyl]-3-yl)-3-((6-oxohexahydropyrrolo[1,2-a]pyrazin-2(1H)-yl)methyl)-4H-pyrido[1,2-a]pyrimidin-4-one]", "IC50": 3.1}, {"smiles": "COc1nc(-c2cccc(-c3cccc(-c4nc5c(c(OC)n4)CN(C[C@@H]4CCC(=O)N4)CC5)c3Cl)c2Cl)ccc1CNC[C@@H]1CCC(=O)N1", "note": "[Example 471, (S)-5-((((6-(2,2′-Dichloro-3′-(4-methoxy-6-(((S)-5-oxopyrrolidin-2-yl)methyl)-5,6,7,8-tetrahydropyrido[4,3-d]pyrimidin-2-yl)-[1,1′-biphenyl]-3-yl)-2-methoxypyridin-3-yl)methyl)amino)methyl)pyrrolidin-2-one]", "IC50": 0.1}, {"smiles": "COc1nc(-c2cccc(-c3cccc(-c4ccc5c(CNC[C@H](C)OC)cn(C)c5n4)c3Cl)c2Cl)ccc1CNC[C@@H]1CCC(=O)N1", "note": "[Example 445, (5S)-5-[[[6-[2-Chloro-3-[2-chloro-3-[3-[[[(2S)-2-methoxypropyl]amino]methyl]-1-methyl-pyrrolo[2,3-b]pyridin-6-yl]phenyl]phenyl]-2-methoxy-3-pyridyl]methylamino]methyl]pyrrolidin-2-one]", "IC50": 460}, {"smiles": "COc1nc(-c2cccc(-c3cccc(-c4ccn5c(=O)c(CN6CC7(CC(O)C7)C6)cnc5c4)c3Cl)c2Cl)ccc1CNC[C@@H]1CCC(=O)N1", "note": "[Example 346, (S)-8-(2,2′-Dichloro-3′-(6-methoxy-5-((((5-oxopyrrolidin-2-yl)methyl)amino)methyl)pyridin-2-yl)-[1,1′-biphenyl]-3-yl)-3-((6-hydroxy-2-azaspiro[3.3]heptan-2-yl)methyl)-4H-pyrido[1,2-a]pyrimidin-4-one]", "IC50": 1300}, {"smiles": "CNC(=O)C1(NCc2cc(=O)n3ccc(-c4cccc(-c5cccc(-c6ccc(CNC[C@@H]7CCC(=O)N7)c(OC)n6)c5Cl)c4Cl)cc3n2)CC1", "note": "[Example 349, (S)-1-(((8-(2,2′-Dichloro-3′-(6-methoxy-5-((((5-oxopyrrolidin-2-yl)methyl)amino)methyl)pyridin-2-yl)-[1,1′-biphenyl]-3-yl)-4-oxo-4H-pyrido[1,2-a]pyrimidin-2-yl)methyl)amino)-N-methylcyclopropanecarboxamide]", "IC50": 0.2}, {"smiles": "Cc1c(-c2ccn3c(=O)c(CNC[C@@H]4CCC(=O)N4)cnc3c2)cccc1-c1cccc(-c2ccc3c(c2)CC(N)C3)c1Cl", "note": "(mixture of isomers) [Example 40, 8-(3′-(2-Amino-2,3-dihydro-1H-inden-5-yl)-2′-chloro-2-methyl-[1,1′-biphenyl]-3-yl)-3-(((((S)-5-oxopyrrolidin-2-yl)methyl)amino)methyl)-4H-pyrido[1,2-a]pyrimidin-4-one]", "IC50": 61}, {"smiles": "COc1c(CNC[C@@H]2CCC(=O)N2)cc(Cl)c2nc(-c3cccc(-c4cccc(-c5ccn6c(=O)c(CNC[C@@H]7CCC(=O)N7)cnc6c5)c4Cl)c3Cl)ccc12", "note": "[Example 203, 8-[2-chloro-3-[2-Chloro-3-[8-chloro-5-methoxy-6-[[[(2S)-5-oxopyrrolidin-2-yl]methylamino]methyl]-2-quinolyl]phenyl]phenyl]-3-[[[(2S)-5-oxopyrrolidin-2-yl]methylamino]methyl] pyrido[1,2-a]pyrimidin-4-one]", "IC50": 150}, {"smiles": "COc1cc(-c2cccc(-c3cccc(-c4ccn5c(=O)c(CNC[C@@H]6CCC(=O)N6)cnc5c4)c3Cl)c2Cl)ccc1CNC[C@@H]1CCC(=O)N1", "note": "[Example 90, 8-(2,2′-Dichloro-3″-methoxy-4″-(((((S)-5-oxopyrrolidin-2-yl)methyl)amino)methyl)-[1,1′:3′,1″-terphenyl]-3-yl)-3-(((((S)-5-oxopyrrolidin-2-yl)methyl)amino)methyl)-4H-pyrido[1,2-a]pyrimidin-4-one]", "IC50": 1.5}, {"smiles": "COc1nc(-c2cccc(-c3cccc(-c4cc(F)c(CNC[C@@H]5CCC(=O)N5)c(OC)n4)c3Cl)c2Cl)cc(F)c1CNC[C@@H]1CCC(=O)N1", "note": "[Example 236, (5S,5′S)-5,5′-(((((2,2′-dichloro-[1,1′-biphenyl]-3,3′-diyl)bis(4-fluoro-2-methoxypyridine-6,3-diyl))bis(methylene))bis(azanediyl))bis(methylene))bis(pyrrolidin-2-one)]", "IC50": 1.2}, {"smiles": "COc1nc(-c2cccc(-c3cccc(-c4ccn5c(=O)c(CN6CC(C(=O)O)C6)cnc5c4)c3Cl)c2Cl)cnc1CN1CC(CO)C1", "note": "[Example 93, 1-((8-(2,2′-Dichloro-3′-(5-((3-(hydroxymethyl)azetidin-1-yl)methyl)-6-methoxypyrazin-2-yl)-[1,1′-biphenyl]-3-yl)-4-oxo-4H-pyrido[1,2-a]pyrimidin-3-yl)methyl)azetidine-3-carboxylic acid]", "IC50": 0.3}, {"smiles": "COc1nc(-c2cccc(-c3cccc(-c4ccc5nc(CN[C@H]6C[C@H](O)C6)n(C)c5n4)c3Cl)c2Cl)ccc1CN[C@H]1C[C@H](O)C1", "note": "[Example 315]", "IC50": 0.4}, {"smiles": "COc1nc(-c2cccc(-c3cccc(-c4ccn5c(Cl)c(CNCCO)nc5c4)c3Cl)c2Cl)ccc1CNCCO", "note": "[Example 383, 2-[[6-[2-Chloro-3-[2-chloro-3-[3-chloro-2-[(2-hydroxyethylamino)methyl]imidazo[1,2-a]pyridin-7-yl]phenyl]phenyl]-2-methoxy-3-pyridyl]methylamino]etanol]", "IC50": 40}, {"smiles": "COc1nc(-c2cccc(-c3cccc(-c4cc5c(=O)n(C)c(CNC[C@@H]6CCC(=O)N6)nn5c4)c3Cl)c2Cl)ccc1CNC[C@@H]1CCC(=O)N1", "note": "[Example 331, 6-(2,2′-Dichloro-3′-(6-methoxy-5-(((((S)-5-oxopyrrolidin-2-yl)methyl)amino)methyl)pyridin-2-yl)-[1,1′-biphenyl]-3-yl)-3-methyl-2-(((((S)-5-oxopyrrolidin-2-yl)methyl)amino)methyl)pyrrolo[2,1-f][1,2,4]triazin-4(3H)-one]", "IC50": 310}, {"smiles": "COc1nc(-c2cccc(-c3cccc(-c4ccn5c(=O)c(CN6C[C@@H](O)C[C@H]6C(=O)O)cnc5c4)c3Cl)c2Cl)ccc1CNC[C@@H]1CCC(=O)N1", "note": "[Example 148, (2S,4S)-1-((8-(2,2′-Dichloro-3′-(6-methoxy-5-(((((S)-5-oxopyrrolidin-2-yl)methyl)amino)methyl)pyridin-2-yl)-[1,1′-biphenyl]-3-yl)-4-oxo-4H-pyrido[1,2-a]pyrimidin-3-yl)methyl)-4-hydroxypyrrolidine-2-carboxylic acid]", "IC50": 0.4}, {"smiles": "Cc1c(COc2cc(OCc3cncc(C#N)c3)c(CNCCO)cc2Cl)cccc1-c1cccc(-c2ccc3c(c2)N(C)C(=O)CCC3NCCO)c1C", "note": "(stereo not drawn) [Example 22, 5-((4-Chloro-5-((3′-(5-((2-hydroxyethyl)amino)-1-methyl-2-oxo-2,3,4,5-tetrahydro-1H-benzo[b]azepin-8-yl)-2,2′-dimethyl-[1,1′-biphenyl]-3-yl)methoxy)-2-(((2-hydroxyethyl)amino)methyl)phenoxy)methyl)nicotinonitrile]", "IC50": 6}, {"smiles": "COc1nc(-c2cccc(-c3cccc(-c4ccc5c(=O)nc(CNC[C@@H]6CCC(=O)N6)[nH]c5c4)c3Cl)c2Cl)ccc1CNC[C@@H]1CCC(=O)N1", "note": "[Example 421, 7-(2,2′-Dichloro-3′-(6-methoxy-5-(((((S)-5-oxopyrrolidin-2-yl)methyl)amino)methyl)pyridin-2-yl)-[1,1′-biphenyl]-3-yl)-2-(((((S)-5-oxopyrrolidin-2-yl)methyl)amino)methyl)quinazolin-4(1H)-one]", "IC50": 14}, {"smiles": "COc1nc(-c2cccc(-c3cccc(-c4ccn5c(=O)c(CN[C@H]6C[C@@](C)(O)C6)c(C)nc5c4)c3Cl)c2Cl)ccc1CN[C@H]1C[C@@](C)(O)C1", "note": "[Example 230, 8-(2,2′-Dichloro-3′-(5-((((1s,3s)-3-hydroxy-3-methylcyclobutyl)amino)methyl)-6-methoxypyridin-2-yl)-[1,1′-biphenyl]-3-yl)-3-((((1s,3s)-3-hydroxy-3-methylcyclobutyl)amino)methyl)-2-methyl-4H-pyrido[1,2-a]pyrimidin-4-one]", "IC50": 98}, {"smiles": "O=C1CC[C@@H](CNCc2ccc(-c3cccc(-c4cccc(-c5ccn6c(=O)c(CNC[C@@H]7CCC(=O)N7)cnc6c5)c4Cl)c3Cl)cc2OC(F)F)N1", "note": "[Example 110, 8-(2,2′-Dichloro-3″-(difluoromethoxy)-4″-(((((S)-5-oxopyrrolidin-2-yl)methyl)amino)methyl)-[1,1′:3′,1″-terphenyl]-3-yl)-3-(((((S)-5-oxopyrrolidin-2-yl)methyl)amino)methyl)-4H-pyrido[1,2-a]pyrimidin-4-one]", "IC50": 2.4}, {"smiles": "COC(=O)CNCc1cnc2cc(-c3cccc(-c4cccc(-c5ccc(CNC[C@@H]6CCC(=O)N6)c(OC)n5)c4Cl)c3Cl)ncc2c1", "note": "[Example 305, (S)-Methyl 2-(((7-(2,2′-dichloro-3′-(6-methoxy-5-((((5-oxopyrrolidin-2-yl)methyl)amino)methyl)pyridin-2-yl)-[1,1′-biphenyl]-3-yl)-1,6-naphthyridin-3-yl)methyl)amino)acetate]", "IC50": 0.4}, {"smiles": "COc1nc(-c2cccc(-c3cccc(-c4ccn5c(=O)c(CNCCN6CCCC6=O)cnc5c4)c3Cl)c2Cl)ccc1CNCCN1CCCC1=O", "note": "[Example 321, 8-[2-Chloro-3-[2-chloro-3-[6-methoxy-5-[[2-(2-oxopyrrolidin-1-yl)ethylamino]methyl]-2-pyridyl]phenyl]phenyl]-3-[[2-(2-oxopyrrolidin-1-yl)ethylamino]methyl]pyrido[1,2-a]pyrimidin-4-one]", "IC50": 0.2}]}]}
